Laboratory results: PubChem BioAssay AID248 (DTP/NCI, 2004)
Values joined by “and” are separate entries in the source; they are usually repeats but may differ in a detail not shown here. Equal entries are not always repeated. Toxic doses and inconclusive results are not listed. Rule as the data show it: active = T/C of 150% or more; inactive = T/C below 125%.

System: L1210 leukemia ip in BDF1 mice, survival T/C
Test: NCI In Vivo Anticancer Drug Screen. Data for tumor model L1210 Leukemia (intraperitoneal) in B6D2F1 (BDF1) mice
Settings: endpoint: mean survival time, higher = longer survival
Procedure: The antitumor activity of compounds was measured in mice bearing transplantable tumors. Survival or tumor size were measured and the results are expressed as the measurement made in the treated group (T) divided by the measurement made in the vehicle treated control group (C). The tumor model used in this assay is L1210 Leukemia (intraperitoneal) in B6D2F1 (BDF1) mice

[1] = dose: 100.0 mg/kg/injection, schedule: Q04DX003 (ip), vehicle: saline with Tween-80
[2] = dose: 200.0 mg/kg/injection, schedule: Q04DX003 (ip), vehicle: saline with Tween-80
[3] = dose: 50.0 mg/kg/injection, schedule: Q01DX009 (ip), vehicle: saline
[4] = dose: 100.0 mg/kg/injection, schedule: Q01DX009 (ip), vehicle: saline
[5] = dose: 100.0 mg/kg/injection, schedule: Q04DX003 (ip), vehicle: saline
[6] = dose: 25.0 mg/kg/injection, schedule: Q01DX009 (ip), vehicle: saline with Tween-80
[7] = dose: 400.0 mg/kg/injection, schedule: Q04DX003 (ip), vehicle: saline with Tween-80
[8] = dose: 100.0 mg/kg/injection, schedule: Q01DX009 (ip), vehicle: Klucel (hydroxypropylcellulose) (HPC)
[9] = dose: 200.0 mg/kg/injection, schedule: Q01DX009 (ip), vehicle: Klucel (hydroxypropylcellulose) (HPC)

Measured: T/C

OCC1=CCC2c3[nH]c4ccccc4c3CCN2C1 (stereo unspecified)
inactive: [1] 106 % of control | [2] 90 % of control

C=CC(=O)N1CN(C(=O)C=C)CN(C(=O)C=C)C1
inactive: dose: 1.25 mg/kg/injection, schedule: Q01DX009 (ip), vehicle: saline 99 % of control | dose: 2.5 mg/kg/injection, schedule: Q01DX009 (ip), vehicle: saline 99 % of control | dose: 5.0 mg/kg/injection, schedule: Q01DX009 (ip), vehicle: saline 104 % of control

CC1NCCC1CO (stereo unspecified)
inactive: [3] 104 % of control | [4] 97 % of control | [5] 96 % of control | dose: 200.0 mg/kg/injection, schedule: Q01DX009 (ip), vehicle: saline 94 % of control | dose: 200.0 mg/kg/injection, schedule: Q04DX003 (ip), vehicle: saline 104 % of control

CCCCN(CCCC)CCCC#N
inactive: dose: 25.0 mg/kg/injection, schedule: Q01DX009 (ip), vehicle: saline 105 % of control | dose: 25.0 mg/kg/injection, schedule: Q04DX003 (ip), vehicle: saline 106 % of control | [3] 103 % of control | dose: 50.0 mg/kg/injection, schedule: Q04DX003 (ip), vehicle: saline 100 % of control | [4] 100 % of control | [5] 103 % of control and 105 % of control

CCCCCCCCCCCCCCCCCC[Se][Se]CCCCCCCCCCCCCCCCCC
inactive: dose: 6.25 mg/kg/injection, schedule: Q01DX009 (ip), vehicle: saline with Tween-80 94 % of control | dose: 12.5 mg/kg/injection, schedule: Q01DX009 (ip), vehicle: saline with Tween-80 93 % of control | [6] 98 % of control and 89 % of control | [1] 87 % of control | [7] 86 % of control

CC(C)(C)c1ccc(SCCN=C(N)CSS(=O)(=O)O)cc1
inactive: dose: 3.13 mg/kg/injection, schedule: Q01DX009 (ip), vehicle: Klucel (hydroxypropylcellulose) (HPC) 91 % of control | dose: 3.13 mg/kg/injection, schedule: Q04DX002 (ip), vehicle: Klucel (hydroxypropylcellulose) (HPC) 98 % of control | dose: 6.25 mg/kg/injection, schedule: Q01DX009 (ip), vehicle: Klucel (hydroxypropylcellulose) (HPC) 102 % of control | dose: 6.25 mg/kg/injection, schedule: Q04DX002 (ip), vehicle: Klucel (hydroxypropylcellulose) (HPC) 107 % of control | dose: 12.5 mg/kg/injection, schedule: Q04DX002 (ip), vehicle: Klucel (hydroxypropylcellulose) (HPC) 98 % of control and 106 % of control

NC(CC(=O)O)c1cccs1 (stereo unspecified)
inactive: dose: 100.0 mg/kg/injection, schedule: Q04DX002 (ip), vehicle: saline 95 % of control | dose: 200.0 mg/kg/injection, schedule: Q04DX002 (ip), vehicle: saline 95 % of control | dose: 400.0 mg/kg/injection, schedule: Q04DX002 (ip), vehicle: saline 102 % of control

O=C(Nc1cc([N+](=O)[O-])ccc1O)Nc1cccc(Cl)c1Cl
inactive: [8] 88 % of control | [9] 100 % of control | dose: 400.0 mg/kg/injection, schedule: Q01DX009 (ip), vehicle: Klucel (hydroxypropylcellulose) (HPC) 92 % of control

COC(=O)/C=C1\Nc2ccc([N+](=O)[O-])cc2NC1=O
inactive: dose: 50.0 mg/kg/injection, schedule: Q01DX009 (ip), vehicle: Klucel (hydroxypropylcellulose) (HPC) 87 % of control | [8] 94 % of control | [9] 100 % of control

CCOC(=O)C(C)(c1c(C)n(C)c2ccccc12)c1c(C)n(C)c2ccccc12
inactive: dose: 50.0 mg/kg/injection, schedule: Q01DX001 (ip), vehicle: other 91 % of control | dose: 100.0 mg/kg/injection, schedule: Q01DX001 (ip), vehicle: other 91 % of control | dose: 200.0 mg/kg/injection, schedule: Q01DX001 (ip), vehicle: other 91 % of control | dose: 400.0 mg/kg/injection, schedule: Q01DX001 (ip), vehicle: other 91 % of control

O=C(O)CNS(=O)(=O)c1ccccc1
inactive: dose: 100.0 mg/kg/injection, schedule: Q01DX009 (ip), vehicle: carboxymethylcellulose (CMC) 97 % of control | dose: 200.0 mg/kg/injection, schedule: Q01DX009 (ip), vehicle: carboxymethylcellulose (CMC) 101 % of control | dose: 400.0 mg/kg/injection, schedule: Q01DX009 (ip), vehicle: carboxymethylcellulose (CMC) 89 % of control

O=C(/C=C\c1ccccc1)NCCNC(=O)/C=C/c1ccccc1
inactive: dose: 100.0 mg/kg/injection, schedule: Q01DX001 (ip), vehicle: saline 105 % of control | dose: 200.0 mg/kg/injection, schedule: Q01DX001 (ip), vehicle: saline 94 % of control | dose: 400.0 mg/kg/injection, schedule: Q01DX001 (ip), vehicle: saline 108 % of control

CCCCCCCCSCCO
inactive: dose: 12.0 mg/kg/injection, schedule: Q01DX009 (ip), vehicle: saline with Tween-80 104 % of control | [6] 101 % of control | dose: 50.0 mg/kg/injection, schedule: Q01DX009 (ip), vehicle: saline with Tween-80 95 % of control | dose: 50.0 mg/kg/injection, schedule: Q04DX003 (ip), vehicle: saline with Tween-80 98 % of control | [1] 96 % of control | [2] 94 % of control | [7] 98 % of control

CC1(C)C(=O)Nc2ccccc2N1C(=O)CN1CCCC1
inactive: dose: 9.37 mg/kg/injection, schedule: Q01DX009 (ip), vehicle: acetone 97 % of control | dose: 18.75 mg/kg/injection, schedule: Q01DX009 (ip), vehicle: acetone 88 % of control | dose: 37.5 mg/kg/injection, schedule: Q01DX009 (ip), vehicle: acetone 98 % of control | dose: 37.5 mg/kg/injection, schedule: Q04DX003 (ip), vehicle: saline 100 % of control | dose: 75.0 mg/kg/injection, schedule: Q01DX001 (ip), vehicle: saline 102 % of control | dose: 75.0 mg/kg/injection, schedule: Q04DX003 (ip), vehicle: saline 91 % of control | dose: 150.0 mg/kg/injection, schedule: Q01DX001 (ip), vehicle: saline 109 % of control

O=C(O)C(=O)NCc1cnccn1
inactive: dose: 25.0 mg/kg/injection, schedule: Q01DX009 (ip), vehicle: water 96 % of control | dose: 50.0 mg/kg/injection, schedule: Q01DX009 (ip), vehicle: water 97 % of control | dose: 100.0 mg/kg/injection, schedule: Q04DX003 (ip), vehicle: water 96 % of control

COC1OC(COC(=O)c2ccc([N+](=O)[O-])cc2)C2SC12 (stereo unspecified)
inactive: dose: 100.0 mg/kg/injection, schedule: Q04DX003 (ip), vehicle: Klucel (hydroxypropylcellulose) (HPC) 104 % of control | dose: 200.0 mg/kg/injection, schedule: Q04DX003 (ip), vehicle: Klucel (hydroxypropylcellulose) (HPC) 97 % of control | dose: 400.0 mg/kg/injection, schedule: Q04DX003 (ip), vehicle: Klucel (hydroxypropylcellulose) (HPC) 97 % of control

Cc1ccc(NC(=O)Nc2ccccc2)cc1Cl
inactive: dose: 100.0 mg/kg/injection, schedule: Q01DX009 (sc), vehicle: olive oil, sesame oil, peanut oil 100 % of control | dose: 100.0 mg/kg/injection, schedule: Q04DX003 (sc), vehicle: olive oil, sesame oil, peanut oil 100 % of control | dose: 200.0 mg/kg/injection, schedule: Q01DX009 (sc), vehicle: olive oil, sesame oil, peanut oil 96 % of control | dose: 200.0 mg/kg/injection, schedule: Q04DX003 (sc), vehicle: olive oil, sesame oil, peanut oil 99 % of control | dose: 400.0 mg/kg/injection, schedule: Q01DX009 (sc), vehicle: olive oil, sesame oil, peanut oil 91 % of control | dose: 400.0 mg/kg/injection, schedule: Q04DX003 (sc), vehicle: olive oil, sesame oil, peanut oil 100 % of control
